Where “and” joins values, the source holds several entries; their conditions need not be identical. Identical values can stand only once. Like-named read-outs stand apart in the source and are kept apart here. One block for each molecule: values may come before it.
Experiments:
[1] = tested on: KB (FR+) cells; experiment: In vitro cytotoxicity assay of anti-FITC-CAR-Ts with Folate-FITC, KB; format: cell-based
Procedure: (§1) Transduced human effector cells (˜50% transduction efficiency) were co-incubated with target cells at 10:1 (total T cells to target cells) ratio for 24 hr in the presence of varying concentrations of FITC “switches.” Redirected lysis of target cells was determined by CytoTox96 nonradioactive cytotoxicity assay kit (Promega, Madison, Wis.) according to manufacturer's protocol. The percentage of cytotoxicity was calculated by: % cytotoxicity=(Absorbance experimental average−Absorbance spontaneous average)/(absorbance max killing average−Absorbance spontaneous average)×100.
(§2) Human PBMCs were freshly isolated from whole blood of healthy donors by centrifugation with Ficoll-Paque PLUS (GE healthcare, Piscataway, N.J.) density gradient medium according to manufacturer's protocol. Cells were immediately activated with Dynabeads Human […] CD3/CD28 (Life Technologies, Carlsbad, Calif.) at 3:1 (bead to cell) ratio in AIM-V media (Life Technologies) containing 5% human AB serum (Valley Biomedical, Winchester, Va.). Lentiviral production was carried out using HEK293FT cell lines. Viral supernatant was used directly to transduce activated PBMCs via spinoculation in the presence of protamine sulfate and recombinant human IL2 (R&D systems, Minneapolis, Minn.). C4-2, KB, and A549 cell lines were maintained in RPMI-1640, Eagles's Minimum Essential Media, and F-12K medium supplemented with 10% fetal bovine serum, respectively (all from Life Technologies).
(§3) FIG. 6B-6C depicts the results from an in vitro cytotoxicity assay of anti-FITC-CAR-Ts co-incubated with KB (FR+) (see FIG. 6B) or A549 (FR−) (see FIG. 6C) target cells in the presence of varying concentrations Folate-FITC. Each concentration was carried out in triplicates. Results are shown as average percentage of cytotoxicity.

[2] = tested on: A549 (FR−) cells; experiment: In vitro cytotoxicity assay of anti-FITC-CAR-Ts with Folate-FITC, A549; format: cell-based; settings: Homo sapiens; for cytotoxicity at 320 fM: 0.32 pM; for cytotoxicity at 0.0002 µM: 200 pM; for cytotoxicity at 0.001 µM: 1000 pM; for cytotoxicity at 0.005 µM: 5000 pM
Procedure: as §1, §2, §3

[3] = Pharmacokinetic study of P-TriA-FITC in mice; format: in vivo
From the text: (§4) In brief, subcutaneous C4-2 (PSMA+) tumors were established in non-obese diabetic-severe combined immunodeficiency (NOD-SCID-γ−/−, NSG) mice.

[4] = tested on: C4-2 (PSMA+) tumors; experiment: In vivo efficacy, subcutaneous C4-2 tumors in NSG mice; settings: s.c. C4-2 tumors
From the text: as §4

[5] = tested on: C4-2 (PSMA+) prostate cancer cells; experiment: 24 hr cytotoxicity assay of anti-FITC-CAR T cells with P-TriA-FITC, C4-2; format: cell-based; settings: triplicates
Procedure: as §1, §2
FIG. 5B depicts a scheme for synthesis of the TriA-2-[3-(1,3-dicarboxypropyl)ureido] pentanedioic acid linker to be conjugated to FITC. FIG. 5C depicts the results from a 24 hr cytotoxicity assay of anti-FITC-CAR T cells targeting C4-2 (PSMA+) prostate cancer cells with serial dilutions of P-TriA-FITC. Each concentration was carried out in triplicate. Results are shown as average percentage of cytotoxicity.

[6] = biological target: Her2 (UniProt P04626); experiment: cell-based or functional assay
[7] = biological target: T1, CD19 (human, UniProt P15391 20-556); experiment: cell-based or functional assay
T1 sequence (looked up): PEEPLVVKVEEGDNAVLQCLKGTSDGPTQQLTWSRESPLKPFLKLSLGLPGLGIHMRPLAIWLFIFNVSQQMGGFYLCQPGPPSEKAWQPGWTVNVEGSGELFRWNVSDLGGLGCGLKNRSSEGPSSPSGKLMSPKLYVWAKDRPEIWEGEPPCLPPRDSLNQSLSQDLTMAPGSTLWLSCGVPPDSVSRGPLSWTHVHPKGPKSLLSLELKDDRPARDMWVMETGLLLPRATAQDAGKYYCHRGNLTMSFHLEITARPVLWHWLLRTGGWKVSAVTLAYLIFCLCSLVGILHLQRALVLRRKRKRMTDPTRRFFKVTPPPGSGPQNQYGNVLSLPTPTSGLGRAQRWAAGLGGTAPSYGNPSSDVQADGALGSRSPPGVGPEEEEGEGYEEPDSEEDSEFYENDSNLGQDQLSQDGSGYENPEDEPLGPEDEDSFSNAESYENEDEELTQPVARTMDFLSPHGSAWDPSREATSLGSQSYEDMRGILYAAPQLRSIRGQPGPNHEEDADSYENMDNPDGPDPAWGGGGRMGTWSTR

[8] = biological target: T1, CD19; experiment: cell-based or functional assay; remark: listed apart in the source

Molecule: Nc1nc2ncc(CNc3ccc(C(=O)N[C@H](CCC(=O)NCCNC(=S)Nc4ccc5c(c4)C(=O)OC54c5ccc(O)cc5Oc5cc(O)ccc54)C(=O)O)cc3)nc2c(=O)[nH]1 [FITC-folate switch]
cytotoxicity at 1.6 pM [1]: 16.5% | cytotoxicity at 8 pM [1]: 37.1% | cytotoxicity at 40 pM [1]: 68.1% | cytotoxicity at 0.0002 µM [1]: 74.6% | cytotoxicity at 0.001 µM [1]: 77.1% | cytotoxicity at 0.005 µM [1]: 77% | cytotoxicity at 320 fM [1]: 8.3% | cytotoxicity at 320 fM ([1]; T-cell, KB (FR+), non-transduced T cells, 0.32 pM): 2.27% | cytotoxicity at 1.6 pM ([1]; T-cell, KB (FR+), non-transduced T cells, 1.6 pM): 3.01% | cytotoxicity at 8 pM ([1]; T-cell, KB (FR+), non-transduced T cells, 8 pM): 2.19% | cytotoxicity at 40 pM ([1]; T-cell, KB (FR+), non-transduced T cells, 40 pM): 2.88% | cytotoxicity at 0.0002 µM ([1]; T-cell, KB (FR+), non-transduced T cells, 200 pM): 2.32% | cytotoxicity at 0.001 µM ([1]; T-cell, KB (FR+), non-transduced T cells, 1000 pM): 2.38% | cytotoxicity at 0.005 µM ([1]; T-cell, KB (FR+), non-transduced T cells, 5000 pM): 2.04% | cytotoxicity at 320 fM ([2]; 4M5.3 CAR-T): 0.957% | cytotoxicity at 8 pM ([2]; 4M5.3 CAR-T): 0.765% | cytotoxicity at 40 pM ([2]; 4M5.3 CAR-T): 2.55% | cytotoxicity at 0.0002 µM ([2]; 4M5.3 CAR-T): 5.78% | cytotoxicity at 0.001 µM ([2]; 4M5.3 CAR-T): 5.87% | cytotoxicity at 0.005 µM ([2]; 4M5.3 CAR-T): 3.15% | cytotoxicity at 1.6 pM ([2]; 4M5.3 CAR-T): 0.527% | cytotoxicity at 320 fM ([2]; non-transduced T cells): -0.986% | cytotoxicity at 8 pM ([2]; non-transduced T cells): -1.05% | cytotoxicity at 40 pM ([2]; non-transduced T cells): -1.52% | cytotoxicity at 0.0002 µM ([2]; non-transduced T cells): -0.96% | cytotoxicity at 0.001 µM ([2]; non-transduced T cells): -1.16% | cytotoxicity at 0.005 µM ([2]; non-transduced T cells): -1.61% | cytotoxicity at 1.6 pM ([2]; non-transduced T cells): -1.02%

intravenous (IV) half-life t1/2 [3]: 1.08 ± 0.14 h
Molecule: O=C(O)CCC(NC(=O)NC(CCCCn1cc(CCCCCCNC(=O)c2ccc(C(=O)NCCOCCOCCOCCNC(=O)c3ccc4c(c3)C(=O)OC43c4ccc(O)cc4Oc4cc(O)ccc43)cc2)nn1)C(=O)O)C(=O)O (centres unmarked) [P-TriA-FITC, 2-[3-(1,3-dicarboxypropyl)ureido]pentanedioic acid-TriA-FITC]
Tumor response ([4]; FITC-CART cells (FITC-E2) i.p. plus switch 1 mg/kg i.v. daily for 10 days): tumors had regressed | Tumor response ([4]; switch only, no CART cells): tumor growth continued | percentage of cytotoxicity ([5]; 4M5.3 anti-FITC CAR T cells, 0.000512 pM): 3.992% and 3.358% and 4.689% | percentage of cytotoxicity ([5]; 4M5.3 anti-FITC CAR T cells, 0.012800 pM): 3.555% and 1.304% and 1.206% | percentage of cytotoxicity ([5]; 4M5.3 anti-FITC CAR T cells, 0.320000 pM): 2.224% and 2.545% and 2.965% | percentage of cytotoxicity ([5]; 4M5.3 anti-FITC CAR T cells, 8.000000 pM): 9.173% and 10.76% and 7.583% | percentage of cytotoxicity ([5]; 4M5.3 anti-FITC CAR T cells, 40.000000 pM): 52.56% and 55.81% and 53.56% | percentage of cytotoxicity ([5]; 4M5.3 anti-FITC CAR T cells, 200.000000 pM): 77.22% and 76.53% and 73.92% | percentage of cytotoxicity ([5]; 4M5.3 anti-FITC CAR T cells, 1000.000000 pM): 82.62% and 79.94% and 78.91% | percentage of cytotoxicity ([5]; 4M5.3 anti-FITC CAR T cells, 5000.000000 pM): 82.04% and 77.45% and 78.01% | percentage of cytotoxicity ([5]; Non-transduced T cells, 0.000512 pM): 1.418% and 0.8462% and 1.052% | percentage of cytotoxicity ([5]; Non-transduced T cells, 0.012800 pM): 1.632% and 0.1496% and 0.8552% | percentage of cytotoxicity ([5]; Non-transduced T cells, 0.320000 pM): 0.1943% and 0.5515% and −0.1898% | percentage of cytotoxicity ([5]; Non-transduced T cells, 8.000000 pM): 1.409% and 0.4622% and 0.5515% | percentage of cytotoxicity ([5]; Non-transduced T cells, 40.000000 pM): −1.11% and −0.5828% and 1.177% | percentage of cytotoxicity ([5]; Non-transduced T cells, 200.000000 pM): −0.5292% and 0.5069% and −0.422% | percentage of cytotoxicity ([5]; Non-transduced T cells, 1000.000000 pM): 0.02456% and 0.09601% and 0.04242% | percentage of cytotoxicity ([5]; Non-transduced T cells, 5000.000000 pM): 1.052% and −0.9132% and 0.1139%

Molecule: FITC-anti-Her2 antibody CAR-T switch with FITC conjugated at LC S202pAcF (Fab based on Trastuzumab)
% cytotoxicity; 0.01 pM switch; MDA MB231 cells [6]: 0% | % cytotoxicity; 0.1 pM switch; MDA MB231 cells [6]: 0% | % cytotoxicity; 100 pM switch; MDA MB231 cells [6]: 48% | EC50 of cytotoxicity; SKBR3 cells [6]: 8000 to 20000 pM

B1: anti-CD19 Fab-FITC switch LG68X (pAzF at glycine 68 of the light chain) (Fab, V domains shown)
VH: EVKLQESGPGLVAPSQSLSVTCTVSGVSLPDYGVSWIRQPPRKGLEWLGVIWGSETTYYNSALKSRLTIIKDNSKSQVFLKMNSLQTDDTAIYYCAKHYYYGGSYAMDYWGQGTSVTVSS
VL: DIQMTQTTSSLSASLGDRVTISCRASQDISKYLNWYQQKPDGTVKLLIYHTSRLHSGVPSRFSGSGSXTDYSLTISNLEQEDIATYFCQQGNTLPYTFGGGTKLEIKR
modifications: p-azidophenylalanine (pAzF) at LC G68, clicked to cyclooctyne-FITC linker
% cytotoxicity; 0.01 pM switch; FITC-E2 CAR-T; NALM6 cells [7]: 0% | % cytotoxicity; 0.1 pM switch; FITC-E2 CAR-T; NALM6 cells [7]: 3.85% | % cytotoxicity; 1 pM switch; FITC-E2 CAR-T; NALM6 cells [7]: 17.8% | % cytotoxicity; 10 pM switch; FITC-E2 CAR-T; NALM6 cells [7]: 56.7% | % cytotoxicity; 100 pM switch; FITC-E2 CAR-T; NALM6 cells [7]: 78.1% | % cytotoxicity; 1000 pM switch; FITC-E2 CAR-T; NALM6 cells [7]: 74.5% | Cytotoxicity EC50; FITC-E2 CAR-T; NALM6 cells [8]: 3.53 pM

B2: anti-CD19 Fab-FITC switch HS74X (pAzF at serine 74 of the heavy chain) (Fab, V domains shown)
VH: EVKLQESGPGLVAPSQSLSVTCTVSGVSLPDYGVSWIRQPPRKGLEWLGVIWGSETTYYNSALKSRLTIIKDNXKSQVFLKMNSLQTDDTAIYYCAKHYYYGGSYAMDYWGQGTSVTVSS
VL: DIQMTQTTSSLSASLGDRVTISCRASQDISKYLNWYQQKPDGTVKLLIYHTSRLHSGVPSRFSGSGSGTDYSLTISNLEQEDIATYFCQQGNTLPYTFGGGTKLEIKR
modifications: pAzF at HC S74, clicked to cyclooctyne-FITC linker
% cytotoxicity; 0.01 pM switch; FITC-E2 CAR-T; NALM6 cells [7]: 0% | % cytotoxicity; 0.1 pM switch; FITC-E2 CAR-T; NALM6 cells [7]: 21.4% | % cytotoxicity; 1 pM switch; FITC-E2 CAR-T; NALM6 cells [7]: 47.6% | Cytotoxicity EC50; FITC-E2 CAR-T; NALM6 cells [8]: 0.97 pM

— US20180104354A1, “CHIMERIC ANTIGEN RECEPTOR T CELL SWITCHES AND USES THEREOF” (The California Institute for Biomedical Research, priority 2013, published 2018)
